This passage reports GI50 and TGI results from PubChem BioAssay (NCI).

Several values for one entry are separate records, joined by “and”; a condition that tells them apart may be missing. Equal values may be shown once.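 Protocol summary: plate cells (96-well), add compound at 5 concentrations, incubate 48 h, interpolate endpoints linearly. The concentration for 50% growth inhibition is given as GI50. TGI: concentration producing complete growth inhibition.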 Bounds are passed on as bounds.

The test system of the test is MDA-MB-468 breast. Put plainly: growth of human tumour cells (NCI), 48 h.
With `O=c1c2cc(F)ccc2sc2c(NCCCNCCO)nc3ccc(F)cc3c12`, the GI50 is 1.78 µM and the TGI amounted to 3.47 µM.
Regarding `CC[C@@]12CC(C(=O)OC)=C3Nc4ccccc4[C@@]34CCN(C[C@H]3O[C@H]31)[C@@H]24`, the GI50 is 21.5 µM and the TGI was 98.7 µM.
Turning to `Fc1cnccc1-c1nc2ccc3[nH]ncc3c2c2c1CCCC2`, the GI50 was 1.05 µM and the TGI was determined as 7.86 µM.
`NC1=Nc2cc(OCCCCN3Cc4ccccc4C3)c(OCC3CC3)cc2C12CCCC2`: the GI50 was 1.25 µM and the TGI is 2.75 µM.
As for `CCc1ccc2cc3c(ccc4ccccc43)c3c2c1CC3`, the GI50 was 0.481 µM and the TGI was > 100 µM.
Consider `Cc1cc(C)c(CNC(=O)c2cc(Cl)c3c(c2C)O[C@@](C)(C2CCC(N(C)C)CC2)O3)c(=O)[nH]1` (stereo not given in full), for which the GI50 is 24.1 µM and the TGI is > 100 µM.
In the case of `COc1cc2nc(NC3CCC3)nc(NC3CCN(C(C)C)CC3)c2cc1OC`, the GI50 was 1.37 µM and the TGI turned out to be 2.85 µM.
As for `CCOc1ccc(-c2nc3ccc(-c4nc5ccc(N6CCN(C)CC6)cc5[nH]4)cc3[nH]2)cc1OCC`, the GI50 is 1.58 µM and the TGI was determined as 4.6 µM.
As for `CN1CC[C@H](N(C)C(=O)N2CC(c3cc(F)ccc3F)=C[C@@]2(CO)c2ccccc2)[C@H](F)C1`, the GI50 is 0.00514 µM.
Regarding `CNC(=S)N/N=C/CSC/C=N/NC(=S)NC`, the GI50 is > 100 µM and the TGI was > 100 µM.
Consider `CC(C)OC(=O)OCOP(=O)(OCOC(=O)OC(C)C)C1CCCN(O)C1=O` (stereo not given), for which the GI50 is 1.61 µM and the TGI was > 100 µM.
Taken in the same sequence, the figures for `CC1(C)N=C(N)N=C(N)N1c1cccc(CC(=O)Nc2ccccc2)c1` were 22.1 µM and > 100 µM.
The like results for `C=CN(C(=O)N1CCN(c2cc3c(cc2F)c(=O)c(C(=O)O)cn3C2CC2)CC1)c1nc(-c2ccc(C)cc2)cs1` were, in that order, 2.86 µM and 9.14 µM.
For `CC/C(=C\c1ccc(N(C)C)cc1)c1ccncc1`, the GI50 is 2.27 µM and the TGI was found to be 7.32 µM.
On to `CCN(CC)c1ccc(C=C2C(=O)NC(=S)NC2=O)cc1`, for which the GI50 was 2.37 µM and the TGI stood at 5.56 µM.
Turning to `CC1(C)CC[C@]2(C(=O)O)CC[C@]3(C)C(=CC[C@@H]4[C@@]5(C)C/C(=C/c6cccnc6)[C@H](O)C(C)(C)[C@@H]5CC[C@]43C)[C@@H]2C1`, the GI50 is 17.1 µM and the TGI was 88.3 µM.
For `N#CSc1c[nH]c2cccc(/C=C/C(=O)/C=C(O)/C=C/c3cccc4[nH]cc(SC#N)c34)c12`, the GI50 is 0.496 µM and the TGI amounted to 1.22 µM.
As for `Nc1c2ccccc2nc2ccccc12`, the GI50 is 1.06 µM and 1.15 µM; the TGI was 2.85 µM and 2.88 µM.
As to `CCCCCCCCCCCCNC(=O)N[C@H](C(=O)N[C@H]1/C=C/OCCNC(=O)/C=C/[C@H](C(C)C)NC1=O)C(C)C`, the GI50 was 0.898 µM and the TGI came to 6.74 µM.
Taken in the same sequence, the figures for `CCn1nc(C#Cc2c(C)ccc3c(Nc4ccc(Cl)cc4)nccc23)c2c(N)ncnc21` were 2.25 µM and 10.5 µM.
Take `Cc1ccc(CNc2ccc(Cl)cc2NCc2ccc(C)c(O)c2)cc1O`: the GI50 is 8.05 µM and the TGI worked out at 16.8 µM.
The like results for `C=C(C)[C@@H]1CC[C@]2(C(=O)OC)CC[C@]3(C)[C@H](CC[C@@H]4[C@@]5(C)CC/C(=N\OCCC(=NCCC#N)NOCCC#N)C(C)(C)[C@@H]5CC[C@]43C)[C@@H]12` were, in that order, 2.02 µM and > 50 µM.
With `O=c1[nH]c2c(ccc3cnccc32)c2c1CCC2`, the GI50 was 0.206 µM and the TGI amounted to 0.549 µM.
Taken in the same sequence, the figures for `COc1cccc(-c2cc(-c3ccc(Nc4nc(Nc5ccc(Cl)cc5)nc(Nc5ccc(Cl)cc5)n4)cc3)nc(N)c2C#N)c1` were 2.18 µM and 4.79 µM.
As to `N#Cc1cccc(/C(N)=N/C(N)=N/c2nc3ccccc3s2)c1`, the GI50 was 0.415 µM.
For the compound `O=c1[nH]c(-c2ccncc2)nc2sc3c(c12)CCCCCC3`, the GI50 was > 100 µM and the TGI was > 100 µM.
